Measurements taken from paper PMC9697930 (International Journal of Molecular Sciences, 2022).

Assays:
MTT proliferation assay = type: cell-based, Canine; conditions: dog, MDCKII-ABCB1 cells, comparative MTT, read-out: antiproliferative IC50
Description: (§1) The viability MTT assay was employed in several experimental sets, including induction studies, comparative viability assays, and drug combinations. First, 1.3 × 10^4 (MDCKII sublines), 1.2 × 10^4 (A431 sublines), 1.5 × 10^4 (MCF-7), and 1.0 × 10^4 (primary NSCLC explants) cells were seeded in 96-well plates. After seeding, cells were left to refresh in incubator for 24 h. Secondly, the medium was removed, and the serial dilutions of the drugs or drug combinations were added to the cells. Next to these variants, a medium with 40% DMSO and vehicle-containing media were tested as nonviable and unaffected viability controls, respectively. After an additional 48 h of incubation, the cells were washed with 1 × PBS and then treated with 1 mg/mL MTT solution in Opti-MEM. Subsequently, cells were incubated for 60 min under standard conditions. After MTT treatment, generated formazan crystals were solubilized with DMSO for 10 min. Wavelengths of 570 nm (formazan) and 690 nm (background) were used for absorbance measurements using a microplate reader Infinite 200 Pro NanoQuant (Tecan, Männedorf, Switzerland).

CYP2C8 = molecular target: T1, CYP2C8 (Homo sapiens, UniProt P10632); assay: Incubation assay with recombinant CYP (Vivid kit); type: biochemical; conditions: recombinant enzyme, Vivid substrate
T1 construct: purchased
Description: (§2) Possible interactions of examined PARPi with human CYP3A4, CYP2C8, CYP2D6, CYP1A2, CYP2B6, CYP2C9, CYP2C19, and CYP3A5 were evaluated using commercial Vivid CYP450 Screening Kits. […] CYP isoenzymes were mixed with the NADPH-regeneration system, and resulting solutions were added to the wells. After 10 min preincubation, the solution of NADP ^+ and a particular Vivid substrate were added to start the CYP-catalyzed reaction. Fluorescence corresponding to the levels of produced metabolites was detected using the microplate reader Infinite […] (Tecan, Männedorf, Switzerland) in a kinetic mode (1-minute intervals). The data from the 15 min interval were selected to analyze the results.

CYP2C19 = molecular target: T2, CYP2C19 (Homo sapiens, UniProt P33261); assay: Incubation assay with recombinant CYP (Vivid kit); type: biochemical; conditions: recombinant enzyme, Vivid substrate
T2 construct: purchased
Description: as §2

CYP2C9 = molecular target: T3, CYP2C9 (Homo sapiens, UniProt P11712); assay: Incubation assay with recombinant CYP (Vivid kit); type: biochemical; conditions: recombinant enzyme, Vivid substrate
T3 construct: purchased
Description: as §2

CYP1A2 = molecular target: T4, CYP1A2 (Homo sapiens, UniProt P05177); assay: Incubation assay with recombinant CYP (Vivid kit); type: biochemical; conditions: recombinant enzyme, Vivid substrate
T4 construct: purchased
Description: as §2

CYP2B6 = molecular target: T5, CYP2B6 (Homo sapiens, UniProt P20813); assay: Incubation assay with recombinant CYP (Vivid kit); type: biochemical; conditions: recombinant enzyme, Vivid substrate
T5 construct: purchased
Description: as §2

CYP3A5 = molecular target: T6, CYP3A5 (Homo sapiens, UniProt P20815); assay: Incubation assay with recombinant CYP (Vivid kit); type: biochemical; conditions: recombinant enzyme, Vivid substrate
T6 construct: purchased
Description: as §2

CYP2D6 = molecular target: T7, CYP2D6 (Homo sapiens, UniProt P10635); assay: Incubation assay with recombinant CYP (Vivid kit); type: biochemical; conditions: recombinant enzyme, Vivid substrate
T7 construct: purchased
Description: as §2

MCF-7 cells = assay: MTT viability experiment; type: cell-based, Human; conditions: 0.5 µM, 48 h
Description: as §1

ABCC1 = ABCC1 (Homo sapiens, UniProt P33527); assay: Accumulation assay with daunorubicin in MDCKII-ABCC1 cells; type: cell-based; parameters: expressed in transfected cells; host or cells: MDCKII (canine kidney) subline MDCKII-ABCC1, gift of Dr. Alfred Schinkel; conditions: read-out: ABCC1 inhibition IC50
Description: The conduction of accumulation assays followed the slightly changed protocol described previously. In the study, MDCKII-par, MDCKII-ABCB1, MDCKII-ABCC1, MDCKII-ABCG2, and primary explants were seeded into 12-well plates in variant densities, 22.0 × 10^4, 15.0 × 10^4, 25.0 × 10^4, 22.0 × 10^4, and 15.0 × 10^4 cells/well, respectively. After 24 h incubation, two washing steps with 1 × PBS were applied. […] The cells were then incubated under standard conditions for 30 min. Next steps included placing the plates on ice, washing the cells with ice-cold 1 × PBS two-times, and detaching the cells with the ice-cold 10 × trypsin without phenol red. Following trypsinization, cells were resuspended in 1 × PBS containing 2% FBS. Subsequently, cell suspensions were transferred into the test tubes and kept on ice. The fluorescence in cells was measured immediately after the collection of their suspensions using flow cytometer Sony SA3800 Spectral Cell Analyzer (Sony Biotechnology, San Jose, CA, USA). SA3800 software (Sony Biotechnology, San Jose, CA, USA) was used to evaluate the data.

ABCC1, sequence (P33527 whole entry): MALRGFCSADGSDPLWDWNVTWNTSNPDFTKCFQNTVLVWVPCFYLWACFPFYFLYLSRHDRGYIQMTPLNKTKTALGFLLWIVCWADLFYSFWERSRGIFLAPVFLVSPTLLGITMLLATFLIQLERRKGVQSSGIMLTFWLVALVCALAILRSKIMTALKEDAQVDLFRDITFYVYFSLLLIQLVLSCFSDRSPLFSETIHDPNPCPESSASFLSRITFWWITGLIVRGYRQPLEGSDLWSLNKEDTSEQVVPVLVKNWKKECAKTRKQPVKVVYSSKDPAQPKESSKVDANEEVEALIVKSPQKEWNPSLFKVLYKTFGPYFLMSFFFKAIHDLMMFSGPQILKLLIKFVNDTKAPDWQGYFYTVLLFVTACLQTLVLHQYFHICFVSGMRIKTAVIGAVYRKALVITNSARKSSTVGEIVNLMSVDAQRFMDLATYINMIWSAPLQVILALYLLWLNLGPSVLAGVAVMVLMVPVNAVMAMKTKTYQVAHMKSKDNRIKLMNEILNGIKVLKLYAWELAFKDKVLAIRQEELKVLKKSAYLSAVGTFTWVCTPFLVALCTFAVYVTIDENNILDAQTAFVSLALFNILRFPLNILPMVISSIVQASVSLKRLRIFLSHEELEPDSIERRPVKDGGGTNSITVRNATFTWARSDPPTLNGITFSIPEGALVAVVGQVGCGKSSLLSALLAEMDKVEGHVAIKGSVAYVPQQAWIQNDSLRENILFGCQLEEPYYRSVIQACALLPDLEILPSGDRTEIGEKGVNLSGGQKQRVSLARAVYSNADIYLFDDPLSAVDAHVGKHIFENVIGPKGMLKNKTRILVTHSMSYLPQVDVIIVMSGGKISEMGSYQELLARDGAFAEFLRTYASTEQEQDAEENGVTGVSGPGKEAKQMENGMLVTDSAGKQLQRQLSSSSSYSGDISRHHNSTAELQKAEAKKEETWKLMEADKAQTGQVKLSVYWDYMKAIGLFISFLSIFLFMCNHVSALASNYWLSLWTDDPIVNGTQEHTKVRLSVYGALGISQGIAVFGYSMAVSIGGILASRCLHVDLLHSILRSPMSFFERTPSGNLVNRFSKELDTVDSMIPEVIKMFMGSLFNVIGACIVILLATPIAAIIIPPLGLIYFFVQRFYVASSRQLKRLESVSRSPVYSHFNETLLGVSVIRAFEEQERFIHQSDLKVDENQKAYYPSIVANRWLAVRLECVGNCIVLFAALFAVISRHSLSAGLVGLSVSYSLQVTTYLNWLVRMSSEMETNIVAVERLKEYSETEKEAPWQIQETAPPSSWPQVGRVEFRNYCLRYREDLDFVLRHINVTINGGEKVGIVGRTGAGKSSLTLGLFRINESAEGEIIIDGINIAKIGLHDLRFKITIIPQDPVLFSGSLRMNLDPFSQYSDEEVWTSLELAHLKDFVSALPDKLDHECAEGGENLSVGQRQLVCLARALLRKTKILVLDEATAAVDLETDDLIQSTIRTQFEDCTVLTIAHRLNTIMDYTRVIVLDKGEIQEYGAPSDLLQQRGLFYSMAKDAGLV
T5 sequence (P20813 whole entry): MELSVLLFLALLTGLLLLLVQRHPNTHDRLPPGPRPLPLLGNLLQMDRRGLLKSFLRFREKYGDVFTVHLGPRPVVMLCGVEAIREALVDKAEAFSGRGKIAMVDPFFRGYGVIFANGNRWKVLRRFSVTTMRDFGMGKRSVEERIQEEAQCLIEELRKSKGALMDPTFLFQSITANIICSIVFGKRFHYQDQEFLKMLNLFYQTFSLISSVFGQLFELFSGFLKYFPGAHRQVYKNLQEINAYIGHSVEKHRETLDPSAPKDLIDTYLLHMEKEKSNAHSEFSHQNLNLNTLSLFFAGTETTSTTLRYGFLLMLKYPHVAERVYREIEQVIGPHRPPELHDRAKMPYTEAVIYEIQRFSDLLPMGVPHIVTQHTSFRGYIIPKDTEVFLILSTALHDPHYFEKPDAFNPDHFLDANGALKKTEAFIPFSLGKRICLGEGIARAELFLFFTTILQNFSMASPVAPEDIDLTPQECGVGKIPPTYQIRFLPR
T1 sequence (P10632 whole entry): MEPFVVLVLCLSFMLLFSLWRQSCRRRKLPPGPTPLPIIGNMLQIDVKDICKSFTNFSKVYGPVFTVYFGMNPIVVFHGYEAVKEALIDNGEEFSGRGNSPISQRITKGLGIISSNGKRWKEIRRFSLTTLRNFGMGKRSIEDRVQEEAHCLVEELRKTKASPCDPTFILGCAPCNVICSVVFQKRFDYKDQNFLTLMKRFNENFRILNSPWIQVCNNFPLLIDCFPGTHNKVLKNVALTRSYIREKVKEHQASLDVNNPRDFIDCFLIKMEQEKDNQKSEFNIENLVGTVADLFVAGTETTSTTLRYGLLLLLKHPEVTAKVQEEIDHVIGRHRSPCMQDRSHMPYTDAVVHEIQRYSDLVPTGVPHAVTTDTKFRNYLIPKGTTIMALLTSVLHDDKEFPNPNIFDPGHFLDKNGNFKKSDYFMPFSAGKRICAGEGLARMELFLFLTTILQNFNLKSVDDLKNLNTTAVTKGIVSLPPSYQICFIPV
T4 sequence (P05177 whole entry): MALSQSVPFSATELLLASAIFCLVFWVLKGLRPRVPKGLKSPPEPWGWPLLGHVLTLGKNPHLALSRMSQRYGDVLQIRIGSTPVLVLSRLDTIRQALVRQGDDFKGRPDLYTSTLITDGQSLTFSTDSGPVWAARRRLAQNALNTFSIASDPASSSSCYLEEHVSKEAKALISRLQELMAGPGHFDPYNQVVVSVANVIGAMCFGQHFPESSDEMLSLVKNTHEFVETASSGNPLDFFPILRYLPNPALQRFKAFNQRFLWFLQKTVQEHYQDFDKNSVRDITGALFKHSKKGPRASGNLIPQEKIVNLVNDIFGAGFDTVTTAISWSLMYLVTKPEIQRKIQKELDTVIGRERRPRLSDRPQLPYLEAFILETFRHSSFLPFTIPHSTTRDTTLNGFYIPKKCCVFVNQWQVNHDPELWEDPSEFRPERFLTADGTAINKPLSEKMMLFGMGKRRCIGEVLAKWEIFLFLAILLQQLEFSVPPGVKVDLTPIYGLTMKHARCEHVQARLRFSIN
T2 sequence (P33261 whole entry): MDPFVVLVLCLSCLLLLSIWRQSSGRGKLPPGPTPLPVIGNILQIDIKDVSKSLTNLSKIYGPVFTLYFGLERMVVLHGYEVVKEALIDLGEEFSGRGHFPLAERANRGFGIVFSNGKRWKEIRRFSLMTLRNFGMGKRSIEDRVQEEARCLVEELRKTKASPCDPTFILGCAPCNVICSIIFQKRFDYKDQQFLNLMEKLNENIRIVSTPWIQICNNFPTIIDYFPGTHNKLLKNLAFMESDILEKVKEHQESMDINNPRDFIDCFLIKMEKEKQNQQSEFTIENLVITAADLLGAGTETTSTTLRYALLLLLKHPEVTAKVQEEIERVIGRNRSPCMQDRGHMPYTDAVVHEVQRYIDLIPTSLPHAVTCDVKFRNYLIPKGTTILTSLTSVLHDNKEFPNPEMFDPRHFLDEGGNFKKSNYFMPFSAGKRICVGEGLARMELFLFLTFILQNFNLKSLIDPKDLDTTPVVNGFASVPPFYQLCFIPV
T7 sequence (P10635 whole entry): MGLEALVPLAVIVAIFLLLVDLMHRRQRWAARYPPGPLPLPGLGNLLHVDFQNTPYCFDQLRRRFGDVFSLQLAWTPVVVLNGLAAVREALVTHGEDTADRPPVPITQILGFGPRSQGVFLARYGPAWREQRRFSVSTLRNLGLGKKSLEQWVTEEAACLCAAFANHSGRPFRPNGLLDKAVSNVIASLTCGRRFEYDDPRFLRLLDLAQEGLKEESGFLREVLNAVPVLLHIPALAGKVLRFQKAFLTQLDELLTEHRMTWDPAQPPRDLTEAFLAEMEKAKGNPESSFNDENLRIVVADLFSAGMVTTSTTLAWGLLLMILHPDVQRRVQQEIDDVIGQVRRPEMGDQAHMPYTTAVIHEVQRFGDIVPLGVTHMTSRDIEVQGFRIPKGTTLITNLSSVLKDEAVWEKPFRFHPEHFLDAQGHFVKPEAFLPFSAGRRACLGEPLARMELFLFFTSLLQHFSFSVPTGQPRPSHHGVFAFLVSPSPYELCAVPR
T6 sequence (P20815 whole entry): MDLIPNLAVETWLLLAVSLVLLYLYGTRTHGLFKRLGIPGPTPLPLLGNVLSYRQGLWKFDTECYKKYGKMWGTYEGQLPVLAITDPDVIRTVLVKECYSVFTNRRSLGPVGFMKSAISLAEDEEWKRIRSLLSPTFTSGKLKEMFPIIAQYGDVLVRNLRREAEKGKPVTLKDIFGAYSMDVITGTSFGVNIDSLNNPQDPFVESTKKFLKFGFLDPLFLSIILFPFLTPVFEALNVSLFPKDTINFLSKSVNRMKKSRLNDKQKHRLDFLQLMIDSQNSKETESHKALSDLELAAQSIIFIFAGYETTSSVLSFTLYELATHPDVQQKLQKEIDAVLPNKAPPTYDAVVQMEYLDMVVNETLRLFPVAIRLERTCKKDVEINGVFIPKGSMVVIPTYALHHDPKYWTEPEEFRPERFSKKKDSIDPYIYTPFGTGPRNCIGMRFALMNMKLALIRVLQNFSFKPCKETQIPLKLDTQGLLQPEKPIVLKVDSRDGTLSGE
T3 sequence (P11712 whole entry): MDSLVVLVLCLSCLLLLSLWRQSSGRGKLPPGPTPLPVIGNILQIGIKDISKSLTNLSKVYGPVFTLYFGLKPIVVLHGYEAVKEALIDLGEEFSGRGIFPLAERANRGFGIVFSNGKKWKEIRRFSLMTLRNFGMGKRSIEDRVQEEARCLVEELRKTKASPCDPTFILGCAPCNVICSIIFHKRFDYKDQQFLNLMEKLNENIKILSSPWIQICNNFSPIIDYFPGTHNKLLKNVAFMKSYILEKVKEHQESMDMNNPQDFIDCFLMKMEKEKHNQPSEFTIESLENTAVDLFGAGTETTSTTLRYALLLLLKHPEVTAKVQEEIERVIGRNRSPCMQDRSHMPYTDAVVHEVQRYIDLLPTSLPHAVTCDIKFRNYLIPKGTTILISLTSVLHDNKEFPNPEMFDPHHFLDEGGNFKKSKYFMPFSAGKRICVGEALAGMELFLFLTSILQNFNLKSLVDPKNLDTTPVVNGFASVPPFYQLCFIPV

- IC50 (CYP2C8): > 50 µM
- IC50 (CYP2C19): > 50 µM
- IC50 (CYP2C9): > 50 µM
- IC50 (CYP1A2): > 50 µM
- IC50 (CYP2B6): > 50 µM
- IC50 (CYP3A5): > 50 µM
- IC50 (CYP2D6): > 50 µM
- IC50 (ABCC1): 5.62 µM
Compound: Cn1ncnc1[C@H]1c2n[nH]c(=O)c3cc(F)cc(c23)N[C@@H]1c1ccc(F)cc1 [talazoparib, Talazoparib]
- IC50 at 48 h (MTT proliferation assay): 67.5 µM
- toxicity in MTT viability experiment (MCF-7 cells): negligibly toxic
